For experiment [1], the target named is T1, Beta-hexosaminidase subunit beta (Homo sapiens) (UniProt P07686).
T1 sequence (whole entry): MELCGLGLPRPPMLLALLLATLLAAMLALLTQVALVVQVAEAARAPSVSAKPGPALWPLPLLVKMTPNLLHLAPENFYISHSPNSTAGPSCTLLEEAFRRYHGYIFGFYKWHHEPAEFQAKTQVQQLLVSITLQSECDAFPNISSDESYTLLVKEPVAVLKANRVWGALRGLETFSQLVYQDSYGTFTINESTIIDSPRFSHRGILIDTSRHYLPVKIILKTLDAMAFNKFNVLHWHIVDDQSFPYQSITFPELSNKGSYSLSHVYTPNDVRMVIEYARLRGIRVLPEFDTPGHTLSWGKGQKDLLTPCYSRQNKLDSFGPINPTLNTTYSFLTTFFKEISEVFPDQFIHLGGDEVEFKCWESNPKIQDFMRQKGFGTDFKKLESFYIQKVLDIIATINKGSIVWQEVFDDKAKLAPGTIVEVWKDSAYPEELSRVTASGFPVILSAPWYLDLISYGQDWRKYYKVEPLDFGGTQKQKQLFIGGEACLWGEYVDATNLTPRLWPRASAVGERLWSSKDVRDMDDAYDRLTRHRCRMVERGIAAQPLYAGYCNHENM
The experiment in a line: Inhibition of recombinant human His6-tagged HexB expressed in Pichia pastoris at 20 uM using 4-Mu-GlcNAc as substrate measured after 30 mins by fluorescence assay relative to control.

The species named for the next experiment is Homo sapiens. The experiment can be described thus: Selectivity ratio of Ki for recombinant human His6-tagged HexB expressed in Pichia pastoris to Ki for recombinant human OGA expressed in Escherichia coli BL21 (DE3).
Experiment [2] deals with T2, Protein O-GlcNAcase (Homo sapiens) (UniProt O60502).
T2 sequence (whole entry): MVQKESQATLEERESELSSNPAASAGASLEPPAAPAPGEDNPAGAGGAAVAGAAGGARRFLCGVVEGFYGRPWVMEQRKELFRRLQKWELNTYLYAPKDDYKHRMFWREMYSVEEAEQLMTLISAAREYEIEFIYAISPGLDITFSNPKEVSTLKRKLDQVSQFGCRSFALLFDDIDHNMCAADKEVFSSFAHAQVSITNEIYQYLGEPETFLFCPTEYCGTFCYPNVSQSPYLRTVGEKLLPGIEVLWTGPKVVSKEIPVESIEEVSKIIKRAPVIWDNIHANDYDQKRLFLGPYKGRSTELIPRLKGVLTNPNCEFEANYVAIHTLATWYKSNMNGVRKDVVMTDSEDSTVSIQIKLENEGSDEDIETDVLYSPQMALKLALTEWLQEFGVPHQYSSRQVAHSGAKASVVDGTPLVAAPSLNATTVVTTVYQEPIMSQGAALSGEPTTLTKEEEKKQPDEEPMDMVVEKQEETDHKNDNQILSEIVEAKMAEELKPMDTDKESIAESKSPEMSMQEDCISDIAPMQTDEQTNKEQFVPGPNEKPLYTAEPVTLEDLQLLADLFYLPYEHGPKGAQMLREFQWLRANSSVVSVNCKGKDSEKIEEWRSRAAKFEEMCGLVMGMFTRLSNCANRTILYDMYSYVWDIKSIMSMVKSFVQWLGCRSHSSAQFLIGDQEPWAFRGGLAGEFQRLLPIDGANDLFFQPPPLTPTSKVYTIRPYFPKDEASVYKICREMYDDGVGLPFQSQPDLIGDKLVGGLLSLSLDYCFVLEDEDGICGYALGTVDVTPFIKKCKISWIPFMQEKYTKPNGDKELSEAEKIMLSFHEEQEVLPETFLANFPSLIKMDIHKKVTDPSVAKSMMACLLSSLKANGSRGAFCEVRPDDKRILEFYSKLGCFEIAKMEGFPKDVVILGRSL
The experiment in a line: Inhibition of recombinant human OGA expressed in Escherichia coli BL21 (DE3) at 20 uM using 4-Mu-GlcNAc as substrate measured after 30 mins by fluorescence assay relative to control.

Experiment [3] has as its target T2, Protein O-GlcNAcase (Homo sapiens). The experiment in a line: Inhibition of recombinant human OGA expressed in Escherichia coli BL21 (DE3) at 20 uM using 4-Mu-GlcNAc as substrate preincubated for 10 mins followed by substrate addition and measured after 30 mins by fluorescence assay relative to control.
A further experiment addresses T3, Protein O-GlcNAcase (Homo sapiens, UniProt O60502).
T3 sequence (O60502 whole entry): T2 sequence (whole entry)
The experiment in a line: Inhibition of recombinant human OGA expressed in Escherichia coli BL21 (DE3) using 4-Mu-GlcNAc as substrate preincubated for 10 mins followed by substrate addition and measured after 30 mins by fluorescence assay.

Experiment [4] addresses T4, Beta-hexosaminidase subunit beta (Homo sapiens, UniProt P07686).
T4 sequence (P07686 whole entry): T1 sequence (whole entry)
The experiment in a line: Inhibition of recombinant human His6-tagged HexB expressed in Pichia pastoris using 4-Mu-GlcNAc as substrate preincubated for 10 mins followed by substrate addition and measured after 30 mins by fluorescence assay.

The target of experiment [5] is T1, Beta-hexosaminidase subunit beta (Homo sapiens). The experiment can be described thus: Inhibition of recombinant human His6-tagged HexB expressed in Pichia pastoris at 20 uM using 4-Mu-GlcNAc as substrate preincubated for 10 mins followed by substrate addition and measured after 30 mins by fluorescence assay relative to control.

`CC(=O)N[C@@H]1[C@@H](O)[C@H](O)[C@@H](CO)O[C@H]1SCCNCCCN1C(=O)c2cccc3cccc(c23)C1=O`: the inhibition stood at 38.7% in experiment [1] and 82.4% in experiment [2]. In the experiment filed under Homo sapiens, the Ratio Ki stood at 8.
Regarding `CC(=O)N[C@@H]1[C@@H](O)[C@H](O)[C@@H](CO)O[C@H]1SCCNCCN1C(=O)c2cccc3c(N(C)C)ccc(c23)C1=O`, the inhibition in experiment [3] stood at 32.6%; in experiment [5], 0%. The IC50 is 25 µM at Protein O-GlcNAcase and > 100 µM in experiment [4].

Broadly, the inhibition is the change of the read-out against control, counted positive when it falls. The term IC50 denotes the concentration needed to halve the response being measured.

Source of the values: ChEMBL document CHEMBL4325931, “Modification of the Thioglycosyl-Naphthalimides as Potent and Selective Human O-GlcNAcase Inhibitors” (ACS Med Chem Lett, 2018).
